According to EPA's ToxRefDB 2:
Blank lines part the entries; values can stand above or below the molecule they belong to.

How the values were obtained:
[1] = test system: mouse; settings: Carcinogenicity, b6c3f1, Dermal, Topical, dose end: 2 year, group: systemic
[2] = test system: rat; settings: Subchronic oral toxicity in rodents, fischer, Dermal, Topical, dose end: 13 week, group: systemic
[3] = test system: mouse; settings: Prenatal developmental toxicity study, cd1, Injection, Intravenous, dose end: 12 GD
[4] = test system: rat; settings: Combined chronic toxicity/carcinogenicity; fischer; Dermal; Topical; dose end: 2 year; group: systemic; systemic / pathology microscopic / pituitary gland / adenoma
[5] = test system: mouse; settings: Combined chronic toxicity/carcinogenicity, b6c3f1, Oral, Gavage/Intubation, dose end: 103 week, group: systemic
[6] = test system: rat; settings: Subchronic oral toxicity in rodents, fischer, Gavage/Intubation, dose end: 13 week, group: systemic
[7] = test system: mouse; settings: Subchronic oral toxicity in rodents, b6c3f1, Gavage/Intubation, dose end: 13 week, group: systemic, systemic / in life observation / clinical signs / fur (altered appearance) + systemic / in life observation / clinical signs / reduced …
[8] = test system: rat; settings: Combined chronic toxicity/carcinogenicity, fischer, Oral, Gavage/Intubation, dose end: 103 week, group: systemic
[9] = test system: mouse; settings: Combined chronic toxicity/carcinogenicity, b6c3f1, Oral, Gavage/Intubation, dose end: 2 year, group: systemic
[10] = test system: rat; settings: Subchronic oral toxicity in rodents, fischer, Gavage/Intubation, dose end: 13 week, group: systemic; remark: listed apart in the source
[11] = test system: mouse; settings: Subchronic oral toxicity in rodents, b6c3f1, Gavage/Intubation, dose end: 13 week, group: systemic
[12] = test system: rat; settings: Combined chronic toxicity/carcinogenicity; fischer; Oral; Gavage/Intubation; dose end: 2 year; group: systemic; systemic / in life observation / body weight / body weight
[13] = test system: mouse; settings: Subchronic oral toxicity in rodents, b6c3f1, Feed, dose end: 7 week, group: systemic, systemic / in life observation / body weight / body weight
[14] = test system: rat; settings: Carcinogenicity; fischer; Oral; Feed; dose end: 107 week; group: systemic; systemic / in life observation / body weight / body weight
[15] = test system: mouse; settings: Carcinogenicity; b6c3f1; Oral; Feed; dose end: 108 week; group: systemic; systemic / in life observation / body weight / body weight
[16] = test system: rat; settings: Subchronic oral toxicity in rodents, fischer, Feed, dose end: 7 week, group: systemic, systemic / in life observation / body weight / body weight
[17] = test system: rat; settings: Carcinogenicity, fischer, Oral, Feed, dose end: 103 week, group: systemic
[18] = test system: mouse; settings: Subchronic oral toxicity in rodents, b6c3f1, Feed, dose end: 13 week, group: systemic, systemic / in life observation / body weight / body weight gain
[19] = test system: mouse; settings: Carcinogenicity; b6c3f1; Oral; Feed; dose end: 103 week; group: systemic; systemic / pathology microscopic / kidney / vacuolization
[20] = test system: rat; settings: Subchronic oral toxicity in rodents, fischer, Feed, dose end: 13 week, group: systemic, systemic / in life observation / body weight / body weight gain
[21] = test system: primate; settings: Other (NonGuideline or Guideline Not Listed); rhesus; Oral; Gavage/Intubation; dose end: 8 day; group: cannot be grouped; systemic / clinical chemistry / alanine aminotransferase (alt/sgpt) / alanine aminotransferase (alt/sgpt) + systemic / clinical chemistry / …
[22] = test system: rat; settings: Other (NonGuideline or Guideline Not Listed), sprague dawley, Oral, Gavage/Intubation, dose end: 7 day, group: cannot be grouped
[23] = test system: rat; settings: Other (NonGuideline or Guideline Not Listed); sprague dawley; Oral; Gavage/Intubation; dose end: 5 day; group: cannot be grouped; systemic / clinical chemistry / alanine aminotransferase (alt/sgpt) / alanine aminotransferase (alt/sgpt) + systemic / clinical chemistry / …
[24] = test system: rat; settings: Sub-acute repeat dose toxicity; sprague dawley; Oral; Gavage/Intubation; dose end: 6 day; group: systemic; systemic / clinical chemistry / alanine aminotransferase (alt/sgpt) / alanine aminotransferase (alt/sgpt) + systemic / clinical chemistry / …
[25] = test system: rat; settings: Sub-acute repeat dose toxicity; sprague dawley; Oral; Gavage/Intubation; dose end: 16 day; group: systemic; systemic / organ weight / liver / absolute + systemic / organ weight / liver / relative to body weight + systemic / organ weight / liver / …
[26] = test system: mouse; settings: Carcinogenicity; other; Oral; Feed; dose end: 24 month; group: systemic; systemic / hematology / anemia / anemia - nos + systemic / organ weight / liver / absolute + systemic / organ weight / liver / relative to …
[27] = test system: rat; settings: Multigenerational reproductive toxicity study, sprague dawley, Oral, Feed, dose end: 2 generation
[28] = test system: rat; settings: Combined chronic toxicity/carcinogenicity; wistar; Oral; Feed; dose end: 24 month; group: systemic; systemic / organ weight / spleen / absolute + systemic / organ weight / spleen / relative to body weight + systemic / pathology microscopic…
[29] = test system: rat; settings: Subchronic oral toxicity in rodents, other, Feed, dose end: 6 month, group: systemic
[30] = systemic / in life observation / body weight / body weight + systemic / in life observation / mortality / mortality
[31] = systemic / pathology microscopic / lung / congestion + systemic / pathology microscopic / pancreas / vacuolization + systemic / in life …
[32] = group: developmental, developmental / developmental malformation / general / [other] + systemic / in life observation / body weight / fetal weight
[33] = group: developmental, systemic / in life observation / body weight / fetal weight
[34] = group: maternal, reproductive / reproductive performance / resorptions / resorptions + systemic / in life observation / body weight / body weight gain + …
[35] = systemic / in life observation / body weight / body weight
[36] = systemic / pathology microscopic / liver / cytomegaly + systemic / pathology microscopic / liver / multinucleated
[37] = systemic / in life observation / body weight / body weight + systemic / in life observation / clinical signs / fur (altered appearance) + …
[38] = systemic / pathology microscopic / kidney / casts + systemic / pathology microscopic / kidney / regeneration
[39] = systemic / pathology microscopic / kidney / hyperplasia + systemic / pathology microscopic / kidney / mineralization
[40] = systemic / pathology microscopic / kidney / hyperplasia + systemic / pathology microscopic / kidney / mineralization + systemic / pathology …
[41] = systemic / in life observation / body weight / body weight + systemic / pathology microscopic / kidney / nephropathy
[42] = systemic / in life observation / body weight / body weight + systemic / pathology microscopic / kidney / nephropathy + systemic / pathology …
[43] = systemic / in life observation / body weight / body weight + systemic / in life observation / clinical signs / alopecia + systemic / in life…
[44] = systemic / pathology microscopic / kidney / nephropathy
[45] = systemic / in life observation / body weight / body weight gain + systemic / pathology microscopic / eye / cataract + systemic / pathology …
[46] = systemic / clinical chemistry / alkaline phosphatase (alp/alk) / alkaline phosphatase (alp/alk) + systemic / clinical chemistry / glucose / …
[47] = systemic / clinical chemistry / glucose / glucose + systemic / pathology gross / liver / discolored + systemic / pathology microscopic / …
[48] = group: offspring, systemic / in life observation / body weight / offspring (pup) weight
[49] = group: parental, systemic / in life observation / body weight / body weight + systemic / in life observation / body weight / body weight gain + systemic / in…
[50] = systemic / pathology gross / urinary bladder / lesion(s) (nos) + systemic / pathology microscopic / blood vessel / [other] + systemic / …

Structure (SMILES): OCCCl [2-Chloroethanol]
LEL [1, 30]: 180 mg/kg/day
NEL [1, 30]: < 180 mg/kg/day
LOAEL ([1]; systemic / pathology microscopic / skin / inflammation + systemic / pathology microscopic / skin / ulcer): 411 mg/kg/day
NOAEL ([1]; systemic / pathology microscopic / skin / inflammation + systemic / pathology microscopic / skin / ulcer + systemic / in life observation / …): 180 mg/kg/day
LOAEL ([2]; systemic / pathology microscopic / lung / congestion + systemic / pathology microscopic / pancreas / vacuolization): 500 mg/kg/day
NEL [2, 31]: 125 mg/kg/day
NOAEL [2, 31]: 250 mg/kg/day
LEL ([2]; systemic / pathology microscopic / pancreas / vacuolization + systemic / in life observation / mortality / mortality): 250 mg/kg/day
LOAEL [3, 32]: > 120 mg/kg/day
NOAEL [3, 32]: ≥ 120 mg/kg/day
LEL [3, 33]: 60 mg/kg/day
NEL [3, 33]: < 60 mg/kg/day
LEL [3, 34]: 120 mg/kg/day
LOAEL [3, 34]: > 120 mg/kg/day
NEL [3, 34]: 60 mg/kg/day
NOAEL [3, 34]: ≥ 120 mg/kg/day
LEL [4]: 100 mg/kg/day
LOAEL [4]: > 100 mg/kg/day
NEL [4]: 50 mg/kg/day
NOAEL [4]: ≥ 100 mg/kg/day

Structure (SMILES): C=C(C)[C@H]1CC=C(C)CC1 [D-Limonene]
LOAEL [5, 35]: 1000 mg/kg/day
NOAEL [5, 35]: 500 mg/kg/day
LEL [5, 36]: 500 mg/kg/day
NEL [5, 36]: 250 mg/kg/day
LOAEL [6, 37]: > 2400 mg/kg/day
NOAEL [6, 37]: ≥ 2400 mg/kg/day
LEL [6, 38]: 150 mg/kg/day
NEL [6, 38]: < 150 mg/kg/day
LEL [7]: 1000 mg/kg/day
LOAEL [7]: > 2000 mg/kg/day
NEL [7]: 500 mg/kg/day
NOAEL [7]: ≥ 2000 mg/kg/day
LOAEL [8, 39]: 75 mg/kg/day
NOAEL [8, 39]: < 75 mg/kg/day
LEL [8, 40]: 75 mg/kg/day
NEL [8, 40]: < 75 mg/kg/day

Structure (SMILES): CCCCCCc1ccc(O)cc1O [4-Hexylresorcinol]
LOAEL [9, 41]: 62.5 mg/kg/day
NOAEL [9, 41]: < 62.5 mg/kg/day
LEL [9, 42]: 62.5 mg/kg/day
NEL [9, 42]: < 62.5 mg/kg/day
LEL [10, 35]: 125 mg/kg/day
LOAEL [10, 35]: 125 mg/kg/day
NEL [10, 43]: 62.5 mg/kg/day
NOAEL [10, 43]: 62.5 mg/kg/day
LEL [11, 44]: 125 mg/kg/day
LOAEL [11, 44]: 250 mg/kg/day
NEL ([11]; systemic / pathology microscopic / kidney / nephropathy + systemic / in life observation / body weight / body weight + systemic / in life …): 62.5 mg/kg/day
NOAEL ([11]; systemic / pathology microscopic / kidney / nephropathy + systemic / in life observation / mortality / mortality): 125 mg/kg/day
LEL [12]: 125 mg/kg/day
LOAEL [12]: 125 mg/kg/day
NEL [12]: 62.5 mg/kg/day
NOAEL [12]: 62.5 mg/kg/day

Structure (SMILES): CCN(CC)C(=S)SSC(=S)N(CC)CC [Disulfiram]
LEL [13]: 150 mg/kg/day
LOAEL [13]: 150 mg/kg/day
NEL [13]: 75 mg/kg/day
NOAEL [13]: 75 mg/kg/day
LEL [14]: 15 mg/kg/day
LOAEL [14]: > 30 mg/kg/day
NEL [14]: < 15 mg/kg/day
NOAEL [14]: ≥ 30 mg/kg/day
LEL [15]: 15 mg/kg/day
LOAEL [15]: 15 mg/kg/day
NEL [15]: < 15 mg/kg/day
NOAEL [15]: < 15 mg/kg/day
LEL [16]: 75 mg/kg/day
LOAEL [16]: 75 mg/kg/day
NEL [16]: < 75 mg/kg/day
NOAEL [16]: < 75 mg/kg/day

Structure (SMILES): OC[C@@H](O)[C@@H](O)[C@H](O)[C@H](O)CO [D-Mannitol]
LOAEL ([17]; systemic / in life observation / body weight / body weight gain): 2500 mg/kg/day
LEL [17, 45]: 1250 mg/kg/day
NEL [17, 45]: < 1250 mg/kg/day
NOAEL [17, 45]: 1250 mg/kg/day
LEL [18]: > 7500 mg/kg/day
LOAEL [18]: > 7500 mg/kg/day
NEL [18]: ≥ 7500 mg/kg/day
NOAEL [18]: ≥ 7500 mg/kg/day
LEL [19]: 3750 mg/kg/day
LOAEL [19]: 3750 mg/kg/day
NEL [19]: < 3750 mg/kg/day
NOAEL [19]: < 3750 mg/kg/day
LEL [20]: 2500 mg/kg/day
LOAEL [20]: 2500 mg/kg/day
NEL [20]: 1250 mg/kg/day
NOAEL [20]: 1250 mg/kg/day

LEL [22, 47]: 100 mg/kg/day
NEL [22, 47]: < 100 mg/kg/day
Structure (SMILES): CCn1nc(Cc2ccccc2)cc1C1CCN(C[C@H]2C[C@H](N(C)[C@@H](C(=O)O)C(C)C)C[C@@H]2c2cccc(F)c2)CC1 [MK-578]
LEL [21]: 200 mg/kg/day
LOAEL [21]: > 200 mg/kg/day
NEL [21]: < 200 mg/kg/day
NOAEL [21]: ≥ 200 mg/kg/day
LOAEL [22, 46]: > 250 mg/kg/day
NOAEL [22, 46]: ≥ 250 mg/kg/day
LEL [23]: 250 mg/kg/day
LOAEL [23]: > 500 mg/kg/day
NEL [23]: < 250 mg/kg/day
NOAEL [23]: ≥ 500 mg/kg/day
LEL [24]: 500 mg/kg/day
LOAEL [24]: > 500 mg/kg/day
NEL [24]: < 500 mg/kg/day
NOAEL [24]: ≥ 500 mg/kg/day
LEL [25]: 100 mg/kg/day
LOAEL [25]: > 100 mg/kg/day
NEL [25]: 30 mg/kg/day
NOAEL [25]: ≥ 100 mg/kg/day

Structure (SMILES): CN(C)C(=O)Nc1ccc(Cl)c(Cl)c1 [Diuron]
LEL [26]: 640 mg/kg/day
LOAEL [26]: 640 mg/kg/day
NEL [26]: 50.8 mg/kg/day
NOAEL [26]: 50.8 mg/kg/day
LEL [27, 48]: 139 mg/kg/day
LOAEL [27, 48]: 139 mg/kg/day
NEL [27, 48]: 18.9 mg/kg/day
NOAEL [27, 48]: 18.9 mg/kg/day
LEL [27, 49]: 101 mg/kg/day
LOAEL [27, 49]: 101 mg/kg/day
NEL [27, 49]: 14.8 mg/kg/day
NOAEL [27, 49]: 14.8 mg/kg/day
LEL [28]: 1 mg/kg/day
LOAEL [28]: 1 mg/kg/day
NEL [28]: < 1 mg/kg/day
NOAEL [28]: < 1 mg/kg/day
LEL [29, 50]: 0.3 mg/kg/day
NEL [29, 50]: < 0.3 mg/kg/day
NOAEL [29, 50]: 0.7 mg/kg/day
LOAEL ([29]; systemic / pathology microscopic / spleen / pigmentation): 1.6 mg/kg/day
